# Reference: patent US12083268B2, “Delivery device and formulation” (Ockham Biotech Limited, priority 2016, dated 2024)
# Values joined by “and” are separate entries in the source; they are usually repeats but may differ in a detail not shown here. Identical values can stand only once.
# What was measured:
# [1] = Solubility of dexamethasone in NaCl solution with and without heparin; assay type: physicochemical
# [2] = Viscosity of heparin salt solutions (BS/U-tube viscometer); assay type: physicochemical
# [3] = Particle size distribution of heparin solutions aerosolised with Aeroneb Go (HELOS KR particle sizer); assay type: physicochemical
# Description: The particle size distribution of heparin solutions was measured after aerosolisation of the heparin solutions using the Aeroneb® Go nebuliser. Particle size measurements were made using the HELOS KR particle sizer device, INHALER module, and WINDOX 5.0 software from SympatecGmbH (Clausthal-Zellerfeld, Germany). The total volume of solution in the reservoir of the nebuliser was 6 mL: 1.5 mL heparin (Wokhardt, 25,000 IU/mL) with 4.5 mL 0.9% aqueous NaCl (final concentration of heparin=6250 IU/mL or 31.25 mg/mL; final concentration of NaCl=[…]). The viscosity of the solution was 1.7 mPa·s. The nebulisation time was 14 min (reservoir empty); particle size measurements were divided into 1 min intervals. The particle distribution is seen to be bimodal. The X50 is […] (mean±standard deviation), where 50% of the total number of the particles is in particles less than this size. […] Optical concentration (droplets in laser pathway) was used as an indication of nebulisation efficiency; this nebulisation efficiency was determined to be 76.91%±4.25%.
# (§1) Aqueous solutions of unfractionated heparin as its sodium salt containing various concentrations of an added inorganic salt were also aerosolised using the Aeroneb® Go. Particle size measurements were made using the HELOS KR particle sizer device, INHALER module, and WINDOX 5.0 software from SympatecGmbH (Clausthal-Zellerfeld, Germany). The heparin sodium salt was obtained from pig intestinal mucosa (Calbiochem, molecular weight 12-15 kDa, 192 U/mg). The particle size distributions are shown in FIGS. 2-7 and the important parameters, quoted as mean values ±standard deviations, are summarised in Table 4 below.
# A 40 mg/mL aqueous solution of heparin containing 140 mM NaCl was aerosolised using the Aeroneb® Go nebuliser in the absence and presence of salbutamol (a bronchodilator) and dexamethasone (a corticosteroid). Particle size measurements were made using the HELOS KR particle sizer device, INHALER module, and WINDOX 5.0 software from SympatecGmbH (Clausthal-Zellerfeld, Germany).
# [4] = in water; reference [7]; cited from earlier work
# [5] = Laser diffraction of aerosol from heparin solutions nebulised with PARI eFlow; assay type: physicochemical
# Description: There is a moderate increase from 1.25±0.01 to 1.99±0.02 mPa·s between 6 and 30 mg/mL and a strong increase to 8.9±0.08 mPa·s when the concentration is further increased to 150 mg/mL. The surface tension (nearly equal to that of water) remains constant between 6 and 30 mg/mL and increases only slightly (from 72.41±0.02 to 73.78±0.05 mN/m) between 30 and 150 mg/mL. As expected the osmolality increases with increasing concentration, going from 0.014±0.001 to 0.293±0.001 osmol/kg over the investigated concentration range. […] All formulations show a pH (between 5.97 and 6.50) which would be appropriate for inhalation (the allowed range according to the European Pharmacopoeia is pH 3.0-8.5). The heparin solutions were nebulised using a PARI eFlow® device configured with Head class 40, which typically results in droplet sizes from 4.0-4.9 μm when using dilute aqueous formulations. The properties of the resultant aerosol particles were measured using laser diffraction, and are compared with the results obtained for isotonic saline measured using the same nebuliser configuration in Table 2.
# [6] = Physicochemical characterisation of heparin solutions in water
# Description: Tests for viscosity, surface tension and osmolality were carried out in triplicate. For pH and density single measurements were performed.
# [7] = HPLC of unfractionated heparin before and after nebulisation with PARI eFlow; assay type: physicochemical; details: 0.25 mg/mL (50 U/mL) in water
# Description: A solution of unfractionated heparin (diluted to 50 U/mL, i.e. 0.25 mg/mL, in ultra high quality water) was analysed by high performance liquid chromatography. HPLC analysis was performed using a […] ion-paring C8 column (Hichrom, Reading, UK), a Rheodyne 7725 syringe loading sample injector fitted with a 20 μL loop (Rheodyne, Cotati, CA, USA), a LKB2150 dual piston pump (LK Bromma, Swedon), a HP 1050CVW detector (Agilent, UK), a HP 3396A integrator (Agilent, UK) and a Rheodyne 25 μL capacity syringe was used to load a 20 μL sample into the injection port. HPLC conditions consisted of an ultraviolet wavelength selected at 232 nm. The flow rate was adjusted to 0.50 mL/min and a pressure of 50 bar was recorded. A mobile phase composed of 30% acetonitrile and 70% aqueous solution comprising 15 mM tetrabutylammonium hydroxide and 50 mM ammonium acetate in HPLC grade water, adjusted to pH 7 with acetic acid, was used. The resulting HPLC trace is shown as the left-hand trace in FIG. 11.
# An identical sample of unfractionated heparin was nebulised using the PARI eFlow® device, and recollected. […] The resulting HPLC trace is shown as the right-hand trace in FIG. 11.
# [8] = Viscosity of heparin salt solutions (BS/U-tube viscometer); assay type: physicochemical; details: 40 mg/mL heparin
# Excerpt: as §1
# [9] = Anti-coagulant activity after nebulisation from PARI eFlow
# Excerpt: In an additional experiment, it was also observed that the anti-coagulant activity of the unfractionated heparin was retained after nebulisation from the PARI eFlow® device.
# [10] = 31.25 mg/mL heparin, 154 mM NaCl, Aeroneb Go
# [11] = 40 mg/mL heparin, 112 mM NaCl, 56 mM MgCl2, Aeroneb Go
# [12] = 40 mg/mL heparin, 140 mM NaCl, Aeroneb Go
# [13] = 40 mg/mL heparin, 168 mM NaCl, Aeroneb Go
# [14] = 40 mg/mL heparin, 196 mM NaCl, Aeroneb Go
# [15] = 40 mg/mL heparin, 210 mM NaCl, Aeroneb Go
# [16] = 40 mg/mL heparin, 224 mM NaCl, Aeroneb Go
# [17] = 40 mg/mL unfractionated heparin, 140 mM NaCl, 0.75 mg/mL dexamethasone, Aeroneb Go
# [18] = 40 mg/mL unfractionated heparin, 140 mM NaCl, 0.83 mg/mL salbutamol, Aeroneb Go
# [19] = 40 mg/mL unfractionated heparin, 140 mM NaCl, no second agent, Aeroneb Go
molecule,measurement,setting,value
C[C@@H]1C[C@H]2[C@@H]3CCC4=CC(=O)C=C[C@]4(C)[C@@]3(F)[C@@H](O)C[C@]2(C)[C@@]1(O)C(=O)CO [dexamethasone],solubility (in words),[1]; 0.25 mg/mL in 140 mM NaCl alone,not soluble
same,solubility (in words),[1]; in 140 mM NaCl containing 40 mg/mL heparin,soluble
heparin,Viscosity,"[2]; 31.25 mg/mL (6250 IU/mL) heparin, 154 mM NaCl",1.7 mPa·s
same,Viscosity,"[2]; 40 mg/mL unfractionated heparin, 140 mM NaCl (Example 3)",2.2 mPa·s
same,X50,[3]; [10],3.45 ± 0.025 µm
same,X90,[3]; [10],less than 8.5 m
same,particles within the respirable range of 1-5 μm,[3]; [10],57.87%
same,Particles in 1-5 μm range,[3]; [11],58.46% and 58.46 ± 0.30%
same,VMD (volume median diameter),[3]; [11],4.31 ± 0.05 μm
same,X50,[3]; [11],3.49 ± 0.056 μm
same,Particles in 1-5 μm range,[3]; [12],50.76% and 50.76 ± 0.63%
same,VMD (volume median diameter),[3]; [12],4.80 ± 0.06 μm
same,X50,[3]; [12],4.095 ± 0.044 μm
same,X50,"[3]; 40 mg/mL heparin, 140 mM NaCl, no second agent, Aeroneb Go (as restated in conclusions)",3.98±0.03 μm
same,VMD,"[3]; 40 mg/mL heparin, 140 mM NaCl, with salbutamol, Aeroneb Go (as restated in conclusions)",4.47 μm
same,Particles in 1-5 μm range,[3]; [13],56.65% and 56.65 ± 0.47%
same,VMD (volume median diameter),[3]; [13],4.41 ± 0.025 μm
same,X50,[3]; [13],3.543 ± 0.049 μm
same,Particles in 1-5 μm range,[3]; [14],48.62% and 48.62 ± 0.38%
same,VMD (volume median diameter),[3]; [14],4.68 ± 0.02 μm
same,X50,[3]; [14],3.978 ± 0.022 μm
same,Particles in 1-5 μm range,[3]; [15],55% and 55 ± 0.24%
same,VMD (volume median diameter),[3]; [15],4.55 ± 0.023 μm
same,X50,[3]; [15],3.812 ± 0.027 μm
same,Particles in 1-5 μm range,[3]; [16],57.02% and 57.02 ± 0.28%
same,VMD (volume median diameter),[3]; [16],4.37 ± 0.032 μm
same,X50,[3]; [16],3.51 ± 0.03 μm
same,VMD,[3]; [17],4.61 ± 0.058 µm
same,X50,[3]; [17],3.906±0.048 μm
same,particles within the respirable range of 1-5 m,[3]; [17],49.954%
same,VMD,[3]; [18],4.47 ± 0.054 µm
same,X50,[3]; [18],3.546±0.045 μm
same,particles within the respirable range of 1-5 m,[3]; [18],55.154%
same,VMD,[3]; [19],4.64±0.033 μm
same,X50,[3]; [19],3.98 ± 0.03 µm
same,particles within the respirable range of 1-5 μm,[3]; [19],48.21%
same,intrinsic viscosity,[4],80.6 mL/g
same,MMD (median mass diameter),[5]; 6 mg/mL heparin,4.6 μm
same,RF (respirable fraction) [% <5 μm],[5]; 6 mg/mL heparin,57.9%
same,MMD (median mass diameter),[5]; 30 mg/mL heparin,4.4 μm
same,RF (respirable fraction) [% <5 μm],[5]; 30 mg/mL heparin,63.0%
same,Viscosity,[6]; 6 mg/mL heparin in water,1.25±0.01 mPa · s and 1.25 mPa · s
same,density,[6]; 6 mg/mL heparin in water,1.00 g/mL
same,osmolality,[6]; 6 mg/mL heparin in water,0.014±0.001 osmol/kg and 0.014 osmol/kg
same,pH,[6]; 6 mg/mL heparin in water,6.50
same,surface tension,[6]; 6 mg/mL heparin in water,72.58 mN/m
same,Viscosity,[6]; 30 mg/mL heparin in water,1.99±0.02 mPa · s and 1.99 mPa · s
same,density,[6]; 30 mg/mL heparin in water,1.01 g/mL
same,osmolality,[6]; 30 mg/mL heparin in water,0.056 osmol/kg
same,pH,[6]; 30 mg/mL heparin in water,6.01
same,surface tension,[6]; 30 mg/mL heparin in water,72.41±0.02 mN/m and 72.41 mN/m
same,Viscosity,[6]; 150 mg/mL heparin in water,8.9±0.08 mPa · s and 8.90 mPa · s
same,density,[6]; 150 mg/mL heparin in water,1.07 g/mL
same,osmolality,[6]; 150 mg/mL heparin in water,0.293±0.001 osmol/kg and 0.293 osmol/kg
same,pH,[6]; 150 mg/mL heparin in water,5.97
same,surface tension,[6]; 150 mg/mL heparin in water,73.78±0.05 mN/m and 73.78 mN/m
same,structural integrity / degradation on nebulisation (HPLC traces before vs after),[7],does not lead to degradation
same,Viscosity,"[8]; 0 mM NaCl, 0 mM MgCl2",2.5 mPa · s
same,Viscosity,"[8]; 112 mM NaCl, 56 mM MgCl2",2 mPa · s and 2.0 mPa · s
same,Viscosity,[8]; 140 mM NaCl,2.22 mPa · s
same,Viscosity,[8]; 168 mM NaCl,2.25 mPa · s
same,Viscosity,[8]; 196 mM NaCl,2.2 mPa · s
same,Viscosity,[8]; 210 mM NaCl,2.2 mPa · s
same,Viscosity,[8]; 224 mM NaCl,2 mPa · s and 2.0 mPa · s
same,anti-coagulant activity after nebulisation,[9],retained
